Source: patent US20160082015A1, “METHODS, COMPOSITIONS AND KITS FOR PROMOTING MOTOR NEURON SURVIVAL AND TREATING AND DIAGNOSING NEURODEGENERATIVE DISORDERS” (PRESIDENT AND FELLOWS OF HARVARD COLLEGE, priority 2013, published 2016)

Columns and labels:
Type in all cases: cell-based, mouse
[1] = system: GSK-3-deficient MN cultures; assay: MN survival using GSK-3 knockout lines; settings: trophic factors withdrawn
From the text: In these cultures, approximately 70% of Isl+/MAP2+ cells were GFP+(i.e., MNs). However, after trophic factor withdrawal, because MNs die selectively under these conditions, only about 50% of Isl+/MAP2+ cells were GFP+MNs. This means that counting Isl+/MAP2+ cells could overestimate the amount of survival after trophic factor withdrawal by approximately 40%. When deprived of neurotrophins, 35% of wild-type Isl+/MAP2+ cells survived, while 44%, 57% and 54% of Isl+/MAP2+ cells in GSK-3[…]-KO, GSK-3[…]-KO and 3/4-KO cultures survived. Using the correction factor for overcounting surviving MNs, this would mean that wild-type MN survival would be approximately 25%, while the KO MNs would have 31%, 41% and 39% survival, respectively.
The inventors used another approach to address the issue of GSK-3 and survival. The inventors produced MNs from the following mouse ESC lines: GSK-3α^−/− (GSK-3α-KO), GSK-3^−/− (GSK-3β-KO), and GSK-3α^+/−/GSK-3β^−/− (3/4-KO). Note that ESCs that are GSK-3α^−/−/GSK-3β^−/− were not able to differentiate into neurons (Doble et al., 2007). Cell death was again initiated by withdrawal of trophic factors and the ability of kenpaullone to promote survival was evaluated. […] The inventors validated this staining method using MN cultures prepared from Hb9::GFP ESCs. In these cultures, approximately 70% of Isl^+/MAP2^+ cells were GFP^+ (i.e., MNs). […]

[2] = system: site-specific phosphorylation of kinases in MN cultures; assay: Phospho-Kinase Antibody Array
Experimental: Freshly dissociated HB9::GFP EBs were plated at a density of 3 million GFP+ cells/10 cm dish and trophic factor withdrawal/compound addition was performed on day 4. Protein lysates were generated 6 and 24 h after treatment using RIPA buffer supplemented with protease and phosphatase inhibitors (Pierce Biotechnology). Equal amounts of total protein from treatment groups were added to Phospho-Kinase Antibody Arrays (R&D Systems, #ARY003). Arrays were prepared following the manufacturer's instructions and developed with SuperSignal West Pico Chemiluminescent Substrate (Pierce Biotechnology). Background signal was subtracted and duplicate spot pixel densities were averaged using QuantityOne software (BioRad).

[3] = system: Hb9:GFP MNs; assay: MN survival in co-culture with wild-type or SOD1^G93A astrocytes; settings: nine days of compound treatment, trophic factors present
Experimental: FIGS. 3A and 3B show line graphs showing effects of kenpaullone and GSK-3 inhibitor VIII on MN death induced by treatment with a PI3K inhibitor. LY294002 was added to cultures on day 4, with or without concurrent treatment with 10 μM kenpaullone or 10 μM GSK-3 inhibitor VIII. Cells were fixed on day 7 for survival analysis. Survival is measured with respect to cells treated with DMSO alone. FIG. 3C is a bar graph showing that Kenpaullone also blocks death of MNs accelerated by co-culture with SOD1^G93A astrocytes. Hb9:GFP MNs were FACS sorted and plated on a confluent monolayer of wild-type or SOD1^G93A astrocytes. Kenpaullone was added to cultures 24 hrs later and was refreshed every three days by replacing half of the old medium with fresh medium containing IX concentration of the compound. Cells were fixed after nine days of compound treatment and MN survival was determined. Trophic factors were present throughout the experiment. Data are presented as percent survival normalized to that of DMSO treated MNs plated on wild-type astrocytes. Again, kenpaullone was effective in decreasing the extent of death. * p<0.05, ** p<0.01, *** p<0.001 (Student's t test, two-tailed). Data are presented as mean±SEM. […]

[4] = system: SOD1^G93A/HB9::GFP MNs; assay: Image analyses of synapses and neurite arborization; settings: 5 μM
From the text: (§1) For synapse analysis, the inventors quantified imaging data using the PerkinElmer Acapella software spot detection algorithm. Synapses were defined as the overlap of presynaptic and postsynaptic spots on MNs. On each GFP^+ cell, we first drew a circle around the cell body with a diameter of approximately two cell body diameters, similar to that described by Ullian et al. (Schwann cells and astrocytes induce synapse formation by spinal motor neurons in culture. Mol Cell Neurosci., 2004, 25: 241-251) as the area for spot detection. Within each circle, presynaptic sites were detected using a primary antibody against synapsin and a secondary antibody conjugated with Alexa-632. Candidate spots that met an average intensity threshold were accepted as legitimate presynaptic punctac. Then we expanded the radius of each presynaptic puncta by 1 pixel, since the pre- and post-synaptic spots often were slightly offset, especially at higher magnifications, and measured the intensity in the postsynaptic channel, using a PSD95 primary antibody and a secondary antibody conjugated with Alexa-546. Postsynaptic punctae that exceeded the threshold mean intensity threshold were accepted, permitting us to define “colocalized” spots, or synapses.
(§2) The neurite tracing method in Acapella software is based on methods developed at CSIRO at perkinelmer.com/pages/020/cellularimaging/assaysneuriteoutgrowth.xhtm. The cell bodies of MNs were located by expression of HB9:GFP, and the neurites were also detected by GFP fluorescence. The algorithm measured the lengths and fluorescence intensities of each neurite and the branching level (primary, secondary, etc). The total lengths of neurites and the numbers, lengths and fluorescent intensities of primary and secondary branches were measured based on selected threshold parameters.

[5] = system: HB9::GFP MNs; assay: as above; settings: 5 μM
From the text: as §1, §2

[6] = trophic factors removed day 4, analyzed day 21

O=C1Cc2c([nH]c3ccc(Br)cc23)-c2ccccc2N1 [Kenpaullone]
MN survival in GSK-3-deficient cultures [1]: still active
relative phosphorylation of GSK-3 [2]: significant reduction
relative phosphorylation of c-Jun [2]: reduction
relative phosphorylation of cJun N-terminal kinase (JNK) [2]: reduction
MN survival on SOD1^G93A astrocytes [3]: improved survival
MN survival on wild-type astrocytes [3]: improved survival
synapses per MN ([4]; no trophic factors, day 21): supported their ability to maintain morphological synapses
neurite growth of MNs [4, 6]: allowing neurite growth beyond that seen in cells kept in trophic factors
number of synapses per MN ([5]; no trophic factors, day 21): dramatic increase
neuritic network of MNs [5, 6]: maintain the neuritic network of these cells at levels seen in trophic factor supplemented cultures
